# Key:
# [1] = tested on: OVA sensitized and challenged wild type mice; test: OVA sensitization and challenge model of Th2 inflammation; format: in vivo; details: for antigen-stimulated IL-4 production / antigen-stimulated IL-13 production: BAL from OVA sensitized and challenged mice, antagonist IP; for onset of a Th2 mediated inflammatory disease: disease induced by allergen (ovalbumin sensitization) or genetic predisposition, summary statement; for airways hyperresponsiveness (AHR), methacholine responsiveness / BAL and tissue inflammation: wild type mice sensitized and challenged with OVA, SU1498 10 mg/kg/day or VEGF TrapR1R2 25 mg/kg, IP; for BAL and tissue inflammation: starting the day before first OVA dose
# Description: The OVA model was undertaken in wild type mice as previously described (Wang et al., 2000). Sensitization and challenge were undertaken in the presence and absence of the VEGF receptor antagonist SU1498 (10 mg/kg/day) or VEGF TrapR1R2 (Regeneron, Inc., Tarrytown, N.Y.) (25 mg/kg) which were given via an intraperitoneal (IP) route starting the day before the first dose of OVA. The VEGF TrapR1R2 is a fusion protein comprised of the extracellular domains of VEGFR1 and VEGFR2 coupled to the Fc-portion of IgG that binds VEGF-A, but not VEGF-B or VEGF-C (Cursiefen et al., 2004). T-bet null mutant mice (Finotto et al., 2002) were obtained from the Jackson Laboratories (Bar Harbor, Me.). At 6 weeks of age they were randomized to SU1498 or control vehicle as described above. Two weeks later phenotypic characterization was undertaken as described above.
# VEGF-A = target: T1, VEGF-A (Homo sapiens, UniProt P15692); details: cited from earlier work
# T1 sequence (P15692 207-320 limits assumed): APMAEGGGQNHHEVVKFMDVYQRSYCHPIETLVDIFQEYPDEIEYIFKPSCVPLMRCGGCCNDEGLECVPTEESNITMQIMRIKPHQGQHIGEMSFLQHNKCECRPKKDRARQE
# VEGF-B = target: T2, VEGF-B (Homo sapiens, UniProt P49765); details: cited from earlier work
# T2 sequence (P49765 22-136 limits assumed): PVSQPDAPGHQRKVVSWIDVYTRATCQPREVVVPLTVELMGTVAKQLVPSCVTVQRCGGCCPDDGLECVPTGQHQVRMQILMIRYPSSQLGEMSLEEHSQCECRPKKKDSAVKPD
# VEGF-C = target: T3, VEGF-C (Homo sapiens, UniProt P49767); details: cited from earlier work
# T3 sequence (P49767 112-227 limits assumed): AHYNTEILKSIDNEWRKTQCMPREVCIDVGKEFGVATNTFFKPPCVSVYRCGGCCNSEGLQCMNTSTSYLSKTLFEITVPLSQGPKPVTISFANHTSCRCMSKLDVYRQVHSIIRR
Compound,antigen-stimulated IL-4 production [1],antigen-stimulated IL-13 production [1],onset of a Th2 mediated inflammatory disease [1],"airways hyperresponsiveness (AHR), methacholine responsiveness [1]",BAL and tissue inflammation [1],binding to VEGF-A (VEGF-A),binding to VEGF-B (VEGF-B),binding to VEGF-C (VEGF-C)
"CC(C)c1cc(/C=C(\C#N)C(=O)NCCCc2ccccc2)cc(C(C)C)c1O [SU1498, reference compound]",markedly decreased,markedly decreased,prevented onset,markedly decreased,markedly decreased,,,
VEGF TrapR1R2: fusion protein comprised of the extracellular domains of VEGFR1 and VEGFR2 coupled to the Fc-portion of IgG (Regeneron),markedly decreased,markedly decreased,prevented onset,abrogates,abrogates,binds,not,not
